Patent US5010104A, “Tricyclic compounds” (Kyowa Hakko Kogyo Co., Ltd., priority 1987, dated 1991)

What was measured:
[1] = biological target: T1, TXA2 /prostaglandin H2 receptor (Cavia porcellus, UniProt A0A286Y4I8); assay: Test on Anti-platelet Activity (TXA2 Antagonizing Test): inhibition of U-46619-induced platelet aggregation in guinea pig platelet rich plasma; type: cell-based; settings: minimum concentration inhibiting platelet aggregation by 30% or more; U-46619 0.5-1 μM; guinea pig PRP; 3 minutes pretreatment
T1 construct: platelet rich plasma (PRP) was collected; endogenous in cells; host or cells: platelets in platelet rich plasma from male guinea pigs (Hartley strain)
T1 sequence (A0A286Y4I8 1-347): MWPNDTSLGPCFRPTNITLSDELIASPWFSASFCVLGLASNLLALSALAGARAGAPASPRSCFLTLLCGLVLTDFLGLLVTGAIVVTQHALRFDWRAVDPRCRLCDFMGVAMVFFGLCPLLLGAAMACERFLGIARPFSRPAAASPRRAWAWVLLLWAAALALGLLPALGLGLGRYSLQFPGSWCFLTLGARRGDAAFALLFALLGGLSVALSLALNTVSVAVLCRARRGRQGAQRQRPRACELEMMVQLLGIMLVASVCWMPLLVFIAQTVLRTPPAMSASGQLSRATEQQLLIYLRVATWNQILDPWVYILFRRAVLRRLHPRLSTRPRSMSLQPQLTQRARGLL
Method: Test on Anti-platelet Activity (TXA2 Antagonizing Test)
Using guinea pig platelet, influence of the compounds in accordance with the present invention on platelet aggregation induced by U-46619 (9,11-dideoxy-9α,11a-methanoepoxyprostaglandin F2 α; manufactured by Cayman Chemica Co., Ltd. ) which was a TXA2 /prostaglandin H2 receptor stimulant was examined.
Male guinea pig (Hartlet strain; body weight, 300 to 600 g) was anesthesized by intraperitoneal administration of sodium pentobarbital (30 mg/kg) and blood was collected from the descending aorta of the abdomen with a 1/10 volume of sodium citrate. By centrifugation (KC-70: manufactured by Kubota Co., Ltd.) at 800 rpm for 10 minutes, platelet rich plasma (PRP) was collected. Platelet aggregation induced by U-46619 (0.5-1 μM) was determined by photometry [Born, G. V. R. et al., Nature (London), 194, 927-929 (1962)]. A test compound was pretreated before 3 minutes and an ability of inhibiting aggregation was measured. The minimum concentration of inhibiting platelet aggregation by 30% or more was defined as the minimum effective concentration (MEC) of the test compound.

dd strain male mice = assay: Acute Toxicity Test: minimum lethal dose, mortality observed for seven days; type: in vivo; settings: mortality over seven days; for Acute Toxicity (MLD) ip: intraperitoneal (ip; 100 mg/kg); for Acute Toxicity (MLD) po: oral (po; 300 mg/kg)
Method: Using three dd strain male mice weighing 20±1 g, a test compound was orally (po; 300 mg/kg) or intraperiotoneally (ip; 100 mg/kg) administered. MLD (the minimum lethal dose) was determined by observing the mortality for seven days after administration.

| Structure (SMILES) | TXA2 Antagonizing Activity (MEC) [1] [µg/mL] | Acute Toxicity (MLD) ip (dd strain male mice) [mg/kg] | Acute Toxicity (MLD) po (dd strain male mice) [mg/kg] |
| --- | --- | --- | --- |
| O=C(O)COc1ccc(CCNS(=O)(=O)c2ccccc2)cc1 [BM13177, reference compound] | 3 | > 100 | > 300 |
| O=C(O)c1ccc2c(c1)C(SCCNS(=O)(=O)c1ccccc1)c1cc(Br)ccc1CO2 (stereo not drawn) [Compound 6b, 9-Bromo-11-[2-[(phenylsulfonyl)amino]ethyl]thio-6,11-dihydrodibenz[b,e]oxepin-2-carboxylic acid] | 0.03 | > 100 | > 300 |
| O=C(O)c1ccc2c(c1)C(SCCNS(=O)(=O)c1ccc(F)cc1)c1ccccc1CO2 (stereo not drawn) [Compound 10b, 11-[2-[(4-Fluorophenylsulfonyl)amino]ethyl]thio-6,11-dihydrodibenz[b,e]oxepin-2-carboxylic acid] | 0.3 | > 100 | > 300 |
| O=C(O)c1ccc2c(c1)C(SCCNS(=O)(=O)c1cccs1)c1ccccc1CO2 (stereo not drawn) [Compound 15b, 11-[2-[(2-Thienylsulfonyl)amino]ethyl]thio-6,11-dihydrodibenz[b,e]oxepin-2-carboxylic acid] | 0.3 | > 100 | > 300 |
| O=C(O)c1ccc2c(c1)C(SCCNS(=O)(=O)c1cccc3cccnc13)c1ccccc1CO2 (stereo not drawn) [Compound 16b, 11-[2-[(8-Quinolylsulfonyl)amino]ethyl]thio-6,11-dihydrodibenz[b,e]oxepin-2-carboxylic acid] | 3 | > 100 | > 300 |
| COc1ccccc1C(=O)NCCSC1c2ccccc2COc2ccc(C(=O)O)cc21 (stereo not drawn) [Compound 33b, 11-[2-[(2-Methoxybenzoyl)amino]ethyl]thio-6,11-dihydrodibenz[b,e]oxepin-2-carboxylic acid] | 0.3 | > 100 | > 300 |
| O=C(O)c1ccc2c(c1)C(SCCNS(=O)(=O)c1ccccc1)c1ccccc1CS2 (stereo not drawn) [Compound 55b, 11-[2-[(Phenylsulfonyl)amino]ethyl]thio-6,11-dihydrodibenzo[b,e]thiepin-2carboxylic acid] | 3 | > 100 | > 300 |
| O=C(O)Cc1ccc2c(c1)/C(=C/CCNS(=O)(=O)c1ccccc1)c1ccccc1CO2 [Compound E-29b] | 1 | > 100 | > 300 |
